From US8604038B2, “Pyrrolidine derived beta 3 adrenergic receptor agonists” (Merck Sharp & Dohme Corp., priority 2009, dated 2013) come the findings set out here.

SMILES strings stand for the structures.

For the first experiment, the target named is T1, human β3 adrenergic receptor (Homo sapiens, UniProt P13945).
T1 construct: expressed in transfected cells; host or cells: CHO (Chinese hamster ovary) cells, stably transfected
T1 sequence (P13945 whole entry): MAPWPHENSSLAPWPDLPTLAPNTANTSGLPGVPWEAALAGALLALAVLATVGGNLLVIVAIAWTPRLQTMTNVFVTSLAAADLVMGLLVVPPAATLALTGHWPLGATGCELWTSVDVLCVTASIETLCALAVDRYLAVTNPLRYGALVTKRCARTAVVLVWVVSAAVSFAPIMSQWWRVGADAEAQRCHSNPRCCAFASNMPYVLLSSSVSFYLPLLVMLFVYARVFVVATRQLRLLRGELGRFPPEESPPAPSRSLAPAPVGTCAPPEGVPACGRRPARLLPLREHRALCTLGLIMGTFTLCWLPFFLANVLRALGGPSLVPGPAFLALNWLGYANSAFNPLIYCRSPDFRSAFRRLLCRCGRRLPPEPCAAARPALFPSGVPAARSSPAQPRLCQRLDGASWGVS
The experiment in a line: Beta-3 agonist in vitro functional assay (cAMP production, LANCE, transfected CHO cells). Conditions: Table 1, CHO cells with cloned β3 receptor, ligands titrated 10^-10 M to 10^-5 M, read-out: Human β3 agonist functional activity. In kind it is cell-based. As to the method: Functional Assay: For compounds in examples 1-50, cAMP production in response to ligand is measured according to Barton, et al. (1991, Agonist-induced desensitization of D2 dopamine receptors in human Y-79 retinoblastoma cells. Mol. Pharmacol. […]:650-658) modified as follows. The cAMP production is measured using a homogenous time-resolved fluorescence resonance energy transfer immunoassay (LANCE™, Perkin Elmer) according to the manufacture's instructions. Chinese hamster ovary (CHO) cells, stably transfected with the cloned β-adrenergic receptor (β1, β2 or β3) are harvested after 3 days of subculturing. Harvesting of cells is done with Enzyme-free Dissociation Media (Specialty Media). Cells are then counted and resuspended in assay buffer (Hank's Balanced salt solution supplemented with 5 mM HEPES, […]) containing a phosphodiesterase inhibitor (IBMX, 0.6 mM). The reaction is initiated by mixing 6,000 cells in 6 μL with 6 μL Alexa Fluor labeled cAMP antibody (LANCE™ kit) which is then added to an assay well containing 12 μL of compound (diluted in assay buffer to 2× final concentration). The reaction proceeds for 30 minutes at RT and is terminated by the addition of 24 ul detection buffer (LANCE™ kit). The assay plate is then incubated for 1 h at RT and time-resolved fluorescence measured on a Perkin Elmer Envision reader or equivalent. The unknown cAMP level is determined by comparing fluorescence levels to a cAMP standard curve.
The non-selective, full agonist β-adrenergic ligand isoproterenol is used at all three receptors to determine maximal stimulation. The human β3 adrenergic receptor (AR) selective ligand (S)-N-[4-[2-[[2-hydroxy-3-(4-hydroxyphenoxy)propyl]amino]ethyl]-phenyl]-4-iodobenzenesulfonamide is used as a control in all assays. […] The EC50 is defined as the concentration of compound that gives 50% activation of its own maximum. Data are analyzed using Microsoft Excel and Graphpad Prism or an internally developed data analysis software package.
The EC50 is defined as the concentration of compound that gives 50% activation of its own maximum. Functional antagonist assays are performed similar to described above; however, unknown ligands are titrated at β-adrenergic receptor subtypes 1 and 2 at a final concentration in the assay of 10^-12 M to 10^-5 M in the presence of 10^-9 M full agonist β-adrenergic ligand isoproterenol. The EC50 is defined as the concentration of compound that gives 50% inhibition of the full agonist response. Data are analyzed using Microsoft Excel and Graphpad Prism or an internally developed data analysis software package.
On to `Cc1cc(-c2ccccc2)nc(CNC(=O)c2ccc(C[C@@H]3CC[C@H]([C@H](O)c4ccccc4)N3)cc2)n1` [Example 22], for which the EC50 lay within 10 to 99.9 nM.

With `O=C(NCc1cc(-c2ccccc2)ncn1)c1ccc(C[C@@H]2CC[C@H]([C@H](O)c3ccccc3)N2)cc1` [Example 23], the EC50 was in the range of 10 to 99.9 nM.

Turning to `O=C(NCc1ncc(-c2ccccc2)cn1)c1ccc(C[C@@H]2CC[C@H]([C@H](O)c3ccccc3)N2)cc1` [Example 24], the EC50 was 10 to 99.9 nM.

Turning to `Nc1nc(CNC(=O)c2ccc(C[C@@H]3CC[C@H]([C@H](O)c4ccccc4)N3)cc2)cs1` [Example 25], the EC50 is 10 to 99.9 nM.

With `Nc1nc(CNC(=O)c2ccc(C[C@@H]3CC[C@H]([C@H](O)c4cccnc4)N3)cc2)cs1` [Example 26], the EC50 fell in the range of 10 to 99.9 nM.

In the case of `Cc1nc(CNC(=O)c2ccc(C[C@@H]3CC[C@H]([C@H](O)c4ccccc4)N3)cc2)cs1` [Example 27], the EC50 fell in the range of 10 to 99.9 nM.

With `O=C(NCc1nc(C(F)(F)F)cc(=O)[nH]1)c1ccc(C[C@@H]2CC[C@H]([C@H](O)c3ccccc3)N2)cc1` [Example 28], the EC50 fell in the range of 10 to 99.9 nM.

Turning to `O=C(NCc1cc(-c2ccccc2)no1)c1ccc(C[C@@H]2CC[C@H]([C@H](O)c3ccccc3)N2)cc1` [Example 29], the EC50 fell in the range of 10 to 99.9 nM.

Take `O=C(NCc1cc(-c2ccccc2)no1)c1ccc(C[C@@H]2CC[C@H]([C@H](O)c3cccnc3)N2)cc1` [Example 30]: the EC50 lay within 10 to 99.9 nM.

In the case of `O=C(NCc1cc(-c2ccccc2)no1)c1ccc(C[C@@H]2CC[C@H]([C@H](O)c3ccc[n+]([O-])c3)N2)cc1` [Example 31], the EC50 fell in the range of 100 to 999 nM.

Regarding `O=C(NCc1cc(-c2ccccc2)n[nH]1)c1ccc(C[C@@H]2CC[C@H]([C@H](O)c3ccccc3)N2)cc1` [Example 32], the EC50 was in the range of 10 to 99.9 nM.

Consider `O=C(NCc1nc(-c2ccccc2)n[nH]1)c1ccc(C[C@@H]2CC[C@H]([C@H](O)c3cccnc3)N2)cc1` [Example 33], for which the EC50 lay within 1 to 9.9 nM.

Turning to `O=C(NCc1nc2ccccc2[nH]1)c1ccc(C[C@@H]2CC[C@H]([C@H](O)c3ccccc3)N2)cc1` [Example 34], the EC50 is 10 to 99.9 nM.

`Cn1c(CNC(=O)c2ccc(C[C@@H]3CC[C@H]([C@H](O)c4ccccc4)N3)cc2)nc2ccccc21` [Example 35]: the EC50 fell in the range of 10 to 99.9 nM.

Turning to `Cn1c(CNC(=O)c2ccc(C[C@@H]3CC[C@H]([C@H](O)c4cccnc4)N3)cc2)nc2ccccc21` [Example 36], the EC50 fell in the range of 10 to 99.9 nM.

Consider `O=C(NCc1nc2cccnc2[nH]1)c1ccc(C[C@@H]2CC[C@H]([C@H](O)c3ccccc3)N2)cc1` [Example 37], for which the EC50 was 10 to 99.9 nM.

For `O=C(NCc1nc2ccncc2[nH]1)c1ccc(C[C@@H]2CC[C@H]([C@H](O)c3ccccc3)N2)cc1` [Example 38], the EC50 was in the range of 1 to 9.9 nM.

For `O=C(NCc1nc2ccncc2[nH]1)c1ccc(C[C@@H]2CC[C@H]([C@H](O)c3cccnc3)N2)cc1` [Example 39], the EC50 lay in the range of 10 to 99.9 nM.

For `O=C(NCc1nc2ccccc2s1)c1ccc(C[C@@H]2CC[C@H]([C@H](O)c3ccccc3)N2)cc1` [Example 40], the EC50 lay within 10 to 99.9 nM.

`O=C(NCc1nc2ccccc2s1)c1ccc(C[C@@H]2CC[C@H]([C@H](O)c3cccnc3)N2)cc1` [Example 41]: the EC50 was 10 to 99.9 nM.

For the molecule `O=C(NCc1nccc2ccccc12)c1ccc(C[C@@H]2CC[C@H]([C@H](O)c3ccccc3)N2)cc1` [Example 42], the EC50 fell in the range of 1 to 9.9 nM.

In the case of `O=C(NCc1nccc2ccccc12)c1ccc(C[C@@H]2CC[C@H]([C@H](O)c3cccnc3)N2)cc1` [Example 43], the EC50 fell in the range of 10 to 99.9 nM.

Turning to `O=C(NCc1ccc2ccccc2n1)c1ccc(C[C@@H]2CC[C@H]([C@H](O)c3ccccc3)N2)cc1` [Example 44], the EC50 lay in the range of 10 to 99.9 nM.

Consider `O=C(NCc1cc2ccccc2cn1)c1ccc(C[C@@H]2CC[C@H]([C@H](O)c3ccccc3)N2)cc1` [Example 45], for which the EC50 fell in the range of 10 to 99.9 nM.

With `O=C(NCc1ccccc1-c1c[nH]cn1)c1ccc(C[C@@H]2CC[C@H]([C@H](O)c3ccccc3)N2)cc1` [Example 46], the EC50 lay within 100 to 999 nM.

Consider `O=C(NC1CCc2scnc21)c1ccc(C[C@@H]2CC[C@H]([C@H](O)c3ccccc3)N2)cc1` (stereo partly drawn) [Example 47], for which the EC50 is 100 to 999 nM.

As to `O=C(NC1CCCc2cccnc21)c1ccc(C[C@@H]2CC[C@H]([C@H](O)c3ccccc3)N2)cc1` (stereo partly drawn) [Example 48], the EC50 was 100 to 999 nM.

On to `CN1CCC(NC(=O)c2ccc(C[C@@H]3CC[C@H]([C@H](O)c4cccnc4)N3)cc2)C1=O` (stereo partly drawn) [Example 49], for which the EC50 lay in the range of 100 to 999 nM.

Staying with this experiment, now noted: Table 2, CHO cells with cloned β3 receptor, ligands titrated 10^-10 M to 10^-5 M, read-out: Human β3 agonist functional activity.
Consider `Cc1cc(C)nc(CNC(=O)c2ccc(C[C@@H]3CC[C@H]([C@H](O)c4ccc(F)cc4)N3)cc2)n1` [Example 50], for which the EC50 lay in the range of 10 to 99.9 nM.

Staying with this experiment, now noted: Table 3, CHO cells with cloned β3 receptor, ligands titrated 10^-12 M to 10^-5 M, read-out: Human β3 agonist functional activity.
As to `CN(Cc1cc2ccccc2cn1)C(=O)c1ccc(C[C@@H]2CC[C@H]([C@H](O)c3ccccc3)N2)cc1` [Example 52], the EC50 lay in the range of 100 to 999 nM.

With `CN(CCc1cccnc1)C(=O)c1ccc(C[C@@H]2CC[C@H]([C@H](O)c3ccccc3)N2)cc1` [Example 53], the EC50 was 10 to 99.9 nM.

With `CN(Cc1ccccn1)C(=O)c1ccc(C[C@@H]2CC[C@H]([C@H](O)c3ccccc3)N2)cc1` [Example 54], the EC50 lay within 100 to 999 nM.

As to `CN(Cc1cccnn1)C(=O)c1ccc(C[C@@H]2CC[C@H]([C@H](O)c3ccccc3)N2)cc1` [Example 55], the EC50 is 100 to 999 nM.

Consider `CN(Cc1cccnn1)C(=O)c1ccc(C[C@@H]2CC[C@H]([C@H](O)c3ccc(N)nc3)N2)cc1` [Example 56], for which the EC50 is 10 to 99.9 nM.

For `CN(Cc1cc(Br)ccn1)C(=O)c1ccc(C[C@@H]2CC[C@H]([C@H](O)c3ccccc3)N2)cc1` [Example 57], the EC50 fell in the range of 10 to 99.9 nM.

In the case of `CN(Cc1cnn(-c2ccccc2)n1)C(=O)c1ccc(C[C@@H]2CC[C@H]([C@H](O)c3ccccc3)N2)cc1` [Example 58], the EC50 is 10 to 99.9 nM.

`CN(Cc1cccnc1)C(=O)c1ccc(C[C@@H]2CC[C@H]([C@H](O)c3ccc(N)nc3)N2)cc1` [Example 59]: the EC50 was under 1 nM.

On to `CN(Cc1cccc(F)c1)C(=O)c1ccc(C[C@@H]2CC[C@H]([C@H](O)c3ccccc3)N2)cc1` [Example 60], for which the EC50 was in the range of 1 to 9.9 nM.

Consider `CN(Cc1cnc2ccccc2n1)C(=O)c1ccc(C[C@@H]2CC[C@H]([C@H](O)c3ccccc3)N2)cc1` [Example 61], for which the EC50 was in the range of 1 to 9.9 nM.

As for `Cc1cccnc1CN(C)C(=O)c1ccc(C[C@@H]2CC[C@H]([C@H](O)c3ccccc3)N2)cc1` [Example 62], the EC50 lay within 10 to 99.9 nM.

Take `COCCN(C)C(=O)c1ccc(C[C@@H]2CC[C@H]([C@H](O)c3ccccc3)N2)cc1` [Example 64]: the EC50 fell in the range of 10 to 99.9 nM.

Regarding `COc1ccccc1CN(C)C(=O)c1ccc(C[C@@H]2CC[C@H]([C@H](O)c3ccccc3)N2)cc1` [Example 65], the EC50 is 10 to 99.9 nM.

As to `Cc1nc(CN(C)C(=O)c2ccc(C[C@@H]3CC[C@H]([C@H](O)c4ccccc4)N3)cc2)cs1` [Example 66], the EC50 was in the range of 10 to 99.9 nM.

`Cc1cccc(CN(C)C(=O)c2ccc(C[C@@H]3CC[C@H]([C@H](O)c4ccccc4)N3)cc2)n1` [Example 67]: the EC50 lay within 10 to 99.9 nM.

As to `CN(Cc1ccccc1)C(=O)c1ccc(C[C@@H]2CC[C@H]([C@H](O)c3ccccc3)N2)cc1` [Example 68], the EC50 lay in the range of 100 to 999 nM.

On to `CN(C)C(=O)c1ccc(C[C@@H]2CC[C@H]([C@H](O)c3ccccc3)N2)cc1` [Example 69], for which the EC50 was in the range of 10 to 99.9 nM.

As for `CN(Cc1nc2ccccc2n1C)C(=O)c1ccc(C[C@@H]2CC[C@H]([C@H](O)c3ccccc3)N2)cc1` [Example 70], the EC50 lay in the range of 100 to 999 nM.

On to `CN(Cc1ccncc1)C(=O)c1ccc(C[C@@H]2CC[C@H]([C@H](O)c3ccccc3)N2)cc1` [Example 71], for which the EC50 is 100 to 999 nM.

As to `CN(Cc1nnn(C)n1)C(=O)c1ccc(C[C@@H]2CC[C@H]([C@H](O)c3ccccc3)N2)cc1` [Example 72], the EC50 lay within 10 to 99.9 nM.

Take `CN(Cc1ncn(C)n1)C(=O)c1ccc(C[C@@H]2CC[C@H]([C@H](O)c3ccccc3)N2)cc1` [Example 73]: the EC50 fell in the range of 100 to 999 nM.

Still in this experiment, the particulars now being: given as a range, CHO cells with cloned β3 receptor, read-out: human Beta-3 agonist functional activity.
Take `CN(Cc1cccnc1)C(=O)c1ccc(C[C@@H]2CC[C@H]([C@H](O)c3ccccc3)N2)cc1` [Example 51, 4-({(2S,5R)-5-[(R)-hydroxy(phenyl)methyl]pyrrolidin-2-yl}methyl)-N-methyl-N-(pyridine-3-ylmethyl)benzamide]: the EC50 is 1 to 9.9 nM.
